Like-named read-outs stand apart in the source and are kept apart here.
Tests used:
[1] = cited from earlier work
[2] = in vivo; cited from earlier work
[3] = Pharmacokinetic study: plasma CCK-8 levels after one oral enteric-coated capsule (Example 3); assay type: in vivo, human
Description: Secondarily, it was desired to ascertain the time it would take to reach peak plasma levels. Each individual ingested the capsule in the fasting state (not having eaten for at least 8 hours). Blood was then drawn every 10 minutes for one hour. […] Plasma was drawn off from each tube and frozen. The frozen plasma was sent to Mt. Sinai Hospital in Canada for measurement of CCK-8 levels.

[4] = tested on: pancreatic amylase secretion; details: Crawley and Corwin; cited from earlier work
CCKA receptors = target: T1, CCKA receptors (Homo sapiens, UniProt P32238); details: de Montigny 1989; cited from earlier work
T1 sequence (P32238 1-428): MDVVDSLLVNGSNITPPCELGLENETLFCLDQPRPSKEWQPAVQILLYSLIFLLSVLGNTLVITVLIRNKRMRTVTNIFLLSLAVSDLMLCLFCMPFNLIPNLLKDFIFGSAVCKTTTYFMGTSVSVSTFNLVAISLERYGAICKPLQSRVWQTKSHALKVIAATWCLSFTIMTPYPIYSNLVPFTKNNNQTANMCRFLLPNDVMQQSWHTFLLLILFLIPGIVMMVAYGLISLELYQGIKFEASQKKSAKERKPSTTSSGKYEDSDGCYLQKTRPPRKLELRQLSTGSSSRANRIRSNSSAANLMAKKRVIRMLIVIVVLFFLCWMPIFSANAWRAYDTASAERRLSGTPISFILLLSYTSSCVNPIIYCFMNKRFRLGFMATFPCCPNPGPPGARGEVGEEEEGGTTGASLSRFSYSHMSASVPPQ

O[C@H](CS)[C@H](O)CS (racemic) [dithiothreitol]
increase in absorption and biliary recovery of a tripeptide over control rats ([1]; ileum): four-fold
increase in absorption and biliary recovery of a tripeptide over control rats ([1]; proximal colon): 70 fold

Asp-Tyr(SO3H)-Met-Gly-Trp-Met-Asp-Phe-NH2 [CCK-8]
oral bio-availability [2]: less than 1%
CCK-8 level (plasma) ([3]; Individual #1, 10 minutes post-ingestion, one enteric-coated capsule with 9.2 micrograms CCK-8 and an enzyme inhibitor, fasting): 3.268 picomoles/liter (pm/L)
CCK-8 level (plasma) ([3]; Individual #1, remaining 5 measurements (every 10 minutes up to one hour), 9.2 micrograms capsule with enzyme inhibitor): detected no CCK-8
CCK-8 level (plasma) ([3]; Individual #2, 10 minutes post-ingestion, 9.2 micrograms capsule with enzyme inhibitor, fasting): 0.7625 pm/L
CCK-8 level (plasma) ([3]; Individual #2, 20 minutes, 9.2 micrograms capsule with enzyme inhibitor, fasting): 3.326 pm/L
CCK-8 level (plasma) ([3]; Individual #2, next 4 measurements (30-60 minutes)): detected no CCK-8
CCK-8 level (plasma) ([3]; Individual #3 (BMI 24), 10 minutes post-ingestion, 9.2 micrograms capsule with enzyme inhibitor, fasting): 0.0 pm/L
CCK-8 level (plasma) ([3]; Individual #3 (BMI 24), 20 minutes, 9.2 micrograms capsule with enzyme inhibitor, fasting): 4.375 pm/L
CCK-8 level (plasma) ([3]; Individual #3, next 4 measurements (30-60 minutes)): detected no CCK-8
more potent than unsulfated CCK-8 or CCK-4 in stimulating pancreatic amylase secretion [4]: approximately 1000 fold

CCK-4: the tetrapeptide, CCK-4 (CCK30-33)
lower affinity for CCKA receptors than the sulfated form of CCK-8 (CCKA receptors): 10,000 fold

From patent publication US20080069869A1, “Formulations and methods for modulating satiety” (priority 2004, published 2008)
